This note sets out measurements from PubChem BioAssay (NCI).

Values joined by “and” are separate entries in the source; they are usually repeats but may differ in a detail not shown here. Equal entries are not always repeated.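 In this assay, cells in 96-well plates receive the compound at five concentrations for 48 hours. Endpoints are linearly interpolated between the surrounding concentrations. GI50 marks 50% less growth. TGI marks complete inhibition of growth.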

Among the test systems are BT-549 breast; CAKI-1 renal; HOP-62 NSCLC; HOP-92 NSCLC; HS 578T breast; LOX IMVI melanoma; OVCAR-5 ovarian; PC-3 prostate; SK-MEL-5 melanoma; SNB-75 CNS.
Common to all, as to experiment: NCI tumour cell line growth inhibition, 48 h

Take `Cn1cc(-c2csc(-c3ccccc3)n2)c2cccnc21`: the GI50 in the experiment on BT-549 breast was 17.1 µM; in the experiment on CAKI-1 renal, 7.1 µM; in the experiment with HOP-62 NSCLC, 15.5 µM; in the experiment with HOP-92 NSCLC it was 1.81 µM; in the experiment on HS 578T breast, 11.8 µM; in the experiment on LOX IMVI melanoma, 12.8 µM. Further, the GI50 was 14 µM in the experiment with OVCAR-5 ovarian, 14.4 µM with PC-3 prostate, 13.7 µM with SK-MEL-5 melanoma and 23.5 µM in the experiment on SNB-75 CNS. Besides, the TGI turned out to be 45.8 µM with BT-549 breast; 31.7 µM in the experiment on CAKI-1 renal; 29.5 µM in the experiment on HOP-62 NSCLC; 15.4 µM with HOP-92 NSCLC; 35.5 µM with HS 578T breast; 25.4 µM in the experiment on LOX IMVI melanoma. The TGI with OVCAR-5 ovarian turned out to be 32.7 µM; in the experiment with PC-3 prostate, 39.1 µM; in the experiment on SK-MEL-5 melanoma it was 26.6 µM; in the experiment with SNB-75 CNS, 97.6 µM.

`NS(=O)(=O)c1ccc(N=Nc2c(O)[nH]c3ccc(C(=O)NCCCn4ccnc4)cc23)cc1`: the GI50 in the experiment on BT-549 breast, with CAKI-1 renal, in the experiment with HOP-62 NSCLC, in the experiment on HOP-92 NSCLC, with HS 578T breast and with LOX IMVI melanoma was greater than 25 µM in each case. The GI50 in the experiment with OVCAR-5 ovarian, in the experiment with PC-3 prostate, in the experiment with SK-MEL-5 melanoma and in the experiment with SNB-75 CNS was greater than 25 µM each time. For the same compound, the TGI in the experiment with BT-549 breast, with CAKI-1 renal, in the experiment on HOP-62 NSCLC, in the experiment on HOP-92 NSCLC, in the experiment with HS 578T breast and with LOX IMVI melanoma was greater than 25 µM throughout. Besides, the TGI in the experiment with OVCAR-5 ovarian, in the experiment on PC-3 prostate, in the experiment on SK-MEL-5 melanoma and in the experiment on SNB-75 CNS was greater than 25 µM in each case.

With `Cc1ccc(C2=NN(c3ccc(S(=O)(=O)NC(=O)NCc4ccccc4)cc3)C(c3ccc(N(C)C)cc3)C2)c(C)c1` (stereo not given), the GI50 is 3.94 µM in the experiment on BT-549 breast; 3.45 µM with CAKI-1 renal; 5.69 µM with HOP-62 NSCLC; 2.64 µM in the experiment on HOP-92 NSCLC; 2.48 µM with HS 578T breast; 4.08 µM in the experiment with LOX IMVI melanoma. Moreover, the GI50 was 5.4 µM in the experiment with OVCAR-5 ovarian, 3.33 µM in the experiment on PC-3 prostate, 2.32 µM with SK-MEL-5 melanoma and 2.44 µM in the experiment with SNB-75 CNS. For the same compound, the TGI with BT-549 breast was found to be 19.9 µM; in the experiment with CAKI-1 renal it was 87.1 µM; with HOP-62 NSCLC, 28 µM; with HOP-92 NSCLC it was 8.58 µM; in the experiment on HS 578T breast, 7.02 µM; in the experiment on LOX IMVI melanoma, 14.1 µM. The TGI was 29.3 µM in the experiment on OVCAR-5 ovarian, 42 µM with PC-3 prostate, 5.62 µM in the experiment on SK-MEL-5 melanoma and greater than 100 µM in the experiment on SNB-75 CNS.

`O=C(CCN1CCCCC1)c1csc2ccccc12`: the TGI in the experiment on BT-549 breast, in the experiment with CAKI-1 renal, in the experiment with HOP-62 NSCLC, in the experiment with HOP-92 NSCLC, in the experiment with HS 578T breast and in the experiment with LOX IMVI melanoma was greater than 100 µM each time. The TGI in the experiment with OVCAR-5 ovarian, in the experiment on PC-3 prostate, with SK-MEL-5 melanoma and in the experiment on SNB-75 CNS was greater than 100 µM in each case.

Consider `CN1C(=O)C(N=Nc2ccc([N+](=O)[O-])cc2)SC1=S` (stereo not given), for which the GI50 was 4.45 µM and 6.28 µM in the experiment with BT-549 breast; 1.18 µM and 3.88 µM with CAKI-1 renal; 9.55 µM and 12.2 µM with HOP-62 NSCLC; 1.71 µM in the experiment on HOP-92 NSCLC; 2.47 µM and 16.2 µM in the experiment on HS 578T breast; 2.56 µM and 9.05 µM in the experiment with LOX IMVI melanoma. For the same compound, the GI50 was 10.6 µM and 15.4 µM in the experiment on OVCAR-5 ovarian; 1.6 µM and 4.65 µM in the experiment on PC-3 prostate; 7.77 µM and 11.1 µM in the experiment on SK-MEL-5 melanoma; 3.23 µM and 16.1 µM in the experiment on SNB-75 CNS. In addition, the TGI was 42.8 µM and 40.6 µM in the experiment on BT-549 breast; 7.8 µM and 50 µM in the experiment on CAKI-1 renal; greater than 100 µM in the experiment on HOP-62 NSCLC; 12.3 µM in the experiment with HOP-92 NSCLC; 22.5 µM and > 100 µM in the experiment with HS 578T breast; 48.5 µM and 98.4 µM in the experiment with LOX IMVI melanoma. For the same compound, the TGI with OVCAR-5 ovarian was > 100 µM and 99.6 µM; in the experiment with PC-3 prostate, greater than 100 µM; in the experiment on SK-MEL-5 melanoma, 28.9 µM and 27 µM; in the experiment with SNB-75 CNS, 67.2 µM and 89.1 µM.

Regarding `CCN1C(=O)/C(=c2\sc3n(c2=O)C2C(NN=3)N(CC)C(=O)N2CC)c2ccccc21` (stereo not given), the GI50 in the experiment on BT-549 breast is 1.37 µM; in the experiment on CAKI-1 renal it was 0.465 µM; in the experiment with HOP-62 NSCLC, 0.786 µM; with HOP-92 NSCLC, 1.13 µM; with HS 578T breast, 0.341 µM; with LOX IMVI melanoma it was 0.666 µM. Moreover, the GI50 in the experiment on OVCAR-5 ovarian is 2.02 µM; with PC-3 prostate it was 0.46 µM; with SK-MEL-5 melanoma, 0.463 µM; in the experiment on SNB-75 CNS, 0.189 µM. Further, the TGI was 14.4 µM in the experiment with BT-549 breast; 32.2 µM with CAKI-1 renal; greater than 42.6 µM with HOP-62 NSCLC; 25.6 µM in the experiment with HOP-92 NSCLC; 31.6 µM in the experiment on HS 578T breast; 26.6 µM in the experiment with LOX IMVI melanoma. Besides, the TGI in the experiment on OVCAR-5 ovarian was greater than 100 µM; in the experiment with PC-3 prostate it was greater than 100 µM; in the experiment with SK-MEL-5 melanoma it was 7.44 µM; in the experiment on SNB-75 CNS, 0.856 µM.

Regarding `O=C(O)CN1C(=O)OC(c2ccccc2)C1=O` (stereo not given), the TGI in the experiment with BT-549 breast, with CAKI-1 renal, in the experiment on HOP-62 NSCLC, with HOP-92 NSCLC, with HS 578T breast and in the experiment with LOX IMVI melanoma was greater than 100 µM in each case. For the same compound, the TGI in the experiment with OVCAR-5 ovarian, in the experiment on PC-3 prostate, in the experiment on SK-MEL-5 melanoma and in the experiment with SNB-75 CNS was greater than 100 µM throughout.

Consider `COc1ccc(OC)c(C2=C(c3cn(C)c4ccccc34)C(=O)NC2=O)c1`, for which the GI50 with BT-549 breast was greater than 25 µM; in the experiment on CAKI-1 renal it was greater than 25 µM; in the experiment on HOP-62 NSCLC, greater than 25 µM; in the experiment on HOP-92 NSCLC it was greater than 25 µM; with HS 578T breast, greater than 16.9 µM; with LOX IMVI melanoma, greater than 25 µM. Further, the GI50 in the experiment with OVCAR-5 ovarian, with PC-3 prostate, with SK-MEL-5 melanoma and in the experiment on SNB-75 CNS was greater than 25 µM each time. In addition, the TGI in the experiment with BT-549 breast, in the experiment on CAKI-1 renal, in the experiment with HOP-62 NSCLC, in the experiment on HOP-92 NSCLC, in the experiment with HS 578T breast and in the experiment on LOX IMVI melanoma was greater than 25 µM throughout. In addition, the TGI with OVCAR-5 ovarian, with PC-3 prostate, in the experiment with SK-MEL-5 melanoma and in the experiment with SNB-75 CNS was greater than 25 µM each time.

Take `CS(=O)(=O)Nc1cc(-c2ccc3ncc(C#N)c(Nc4ccc(F)c(Cl)c4)c3c2)cnc1Cl`: the GI50 in the experiment on BT-549 breast was 0.0542 µM; with CAKI-1 renal it was 0.258 µM; in the experiment with HOP-62 NSCLC, 0.195 µM; with HOP-92 NSCLC, 0.0333 µM; with HS 578T breast, 0.131 µM; in the experiment on LOX IMVI melanoma, 0.169 µM. Further, the GI50 in the experiment on OVCAR-5 ovarian is 0.308 µM; in the experiment with PC-3 prostate it was 0.197 µM; in the experiment with SK-MEL-5 melanoma, 0.0428 µM; in the experiment on SNB-75 CNS, 0.0251 µM. Besides, the TGI was 0.655 µM in the experiment on BT-549 breast; 1.24 µM in the experiment on CAKI-1 renal; 8.42 µM with HOP-62 NSCLC; 0.61 µM in the experiment with HOP-92 NSCLC; 0.798 µM in the experiment with HS 578T breast; 0.698 µM in the experiment with LOX IMVI melanoma. In addition, the TGI in the experiment on OVCAR-5 ovarian was determined as 2.29 µM; in the experiment with PC-3 prostate, 10.6 µM; with SK-MEL-5 melanoma, 0.159 µM; in the experiment on SNB-75 CNS it was 0.507 µM.

For the compound `O=C1/C(=C/c2ccc(Cl)cc2)CN(Cc2cn(CCCNc3ccnc4cc(Cl)ccc34)nn2)C/C1=C\c1ccc(Cl)cc1`, the GI50 was 1.64 µM in the experiment with BT-549 breast; 0.734 µM in the experiment with CAKI-1 renal; 1.47 µM in the experiment with HOP-62 NSCLC; 1.46 µM in the experiment with HOP-92 NSCLC; 1.39 µM in the experiment with HS 578T breast; 0.249 µM with LOX IMVI melanoma. Moreover, the GI50 in the experiment on OVCAR-5 ovarian is 1.26 µM; in the experiment with PC-3 prostate it was 0.391 µM; with SK-MEL-5 melanoma, 1.72 µM; in the experiment with SNB-75 CNS, 1.39 µM. Moreover, the TGI with BT-549 breast was 3.18 µM; in the experiment with CAKI-1 renal, 2.92 µM; in the experiment with HOP-62 NSCLC, 2.94 µM; with HOP-92 NSCLC, 3.18 µM; in the experiment on HS 578T breast it was 5.95 µM; with LOX IMVI melanoma, 0.719 µM. In addition, the TGI with OVCAR-5 ovarian was found to be 3.06 µM; in the experiment on PC-3 prostate, 1.59 µM; in the experiment on SK-MEL-5 melanoma, 3.14 µM; in the experiment with SNB-75 CNS, 2.92 µM.

Consider `COc1ccc(-c2nc3sccn3c2-c2ccnc(NCCNS(=O)(=O)c3ccc(C(F)(F)F)cc3)n2)cc1`, for which the GI50 in the experiment on BT-549 breast was 0.707 µM; with CAKI-1 renal it was 2.64 µM; in the experiment on HOP-62 NSCLC, 13.7 µM; with HOP-92 NSCLC, 0.153 µM; with HS 578T breast, 2.35 µM; in the experiment with LOX IMVI melanoma it was 3.26 µM. Moreover, the GI50 with OVCAR-5 ovarian was 9.38 µM; with PC-3 prostate it was 0.303 µM; in the experiment with SK-MEL-5 melanoma, 1.24 µM; in the experiment with SNB-75 CNS, 1.98 µM. Moreover, the TGI in the experiment on BT-549 breast was 5.94 µM; in the experiment with CAKI-1 renal, greater than 100 µM; with HOP-62 NSCLC, greater than 100 µM; in the experiment on HOP-92 NSCLC it was 2.51 µM; in the experiment on HS 578T breast, greater than 100 µM; with LOX IMVI melanoma it was 19.2 µM. The TGI was greater than 100 µM in the experiment with OVCAR-5 ovarian, 3.34 µM in the experiment with PC-3 prostate, 2.52 µM in the experiment on SK-MEL-5 melanoma and 10.7 µM in the experiment with SNB-75 CNS.
